Data from patent US12590965B2, “Palmitoyl protein biomarkers in purified extracellular vesicles for early identification of clinically significant prostate cancer” (priority 2012, dated 2026).
“Also recorded” adds a separate entry of the source.

What was measured:
PC3 cells = assay: Titration of 2-bromopalmitate to a non-toxic concentration in PC3 cells; assay type: cell-based; conditions: 24 hours, serum-starvation
Method: (§1) The PC3 cell line was obtained from the American Type Culture Collection (ATCC). The DU145DIAPH3-KD cell line, stably transfected with DIAPH3 shRNA, was generated in our laboratories. PC3 and DU145DIAPH3-KD cell lines were cultured in DMEM (Invitrogen). All cells were supplemented with 10% foetal bovine serum (Denville Scientific), 2 mM L-glutamine (Invitrogen) and 1% PenStrep (Invitrogen). DU145DIAPH3-KD cells were additionally selected with 2 μg/mL puromycin as described. All cells were grown at 37° C. and 5% CO2. Cell viability of the EV-producer cells was tested with the 0.4% Trypan Blue (Sigma) exclusion method. All cell lines were routinely tested for mycoplasma contamination by using the MycoAlert PLUS Mycoplasma Detection Kit (Lonza). Finally, in order to collect EVs from cells in which palmitoylation was inhibited, PC3 cells were treated for 24 hours with 2-bromohexadecanoic acid (Sigma), also known as 2-bromopalmitate (0.5, 1, 5, 10, 20, 50 and 100 μM), in serum-starvation.
Finally, we investigated if palmitoylation had any influence on the localization of select proteins in EVs. To do so, we titrated the concentration of 2-bromopalmitate (2-BP), a general inhibitor of palmitoylation, to a non-toxic concentration of 10 μM in PC3 cells (data not shown) in order to avoid any alterations in the EV shedding (FIG. 18(d)) and recovery of EV-protein (FIG. 18(e)). […]

[1] = system: palmitoylation in PC3 cells; assay: Immunoblot of protein abundance in PC3 L- and S-EVs after inhibition of palmitoylation; assay type: cell-based
Method: as §1
The isolation of EVs was conducted as previously described with minor modifications (Vagner et al. Large extracellular vesicles carry most of the tumour DNA circulating in prostate cancer patient plasma. J Extracell Vesicles. 2018; 7(1):1505403; Minciacchi et al. Large oncosomes contain distinct protein cargo and represent a separate functional class of tumor-derived extracellular vesicles. Oncotarget. 2015; 6(13):11327-11341; Minciacchi et al. MYC mediates large oncosome-induced fibroblast reprogramming in prostate cancer. Cancer Res. 2017; 77(9):2306-2317). Cells were grown on 18×150 cm^2-cell culture plates (Corning) until 90% confluence, washed in PBS and serum-starved for 24 hours before the collection of conditioned cell media. The conditioned media was cleared by differential centrifugation of floating cells at 300 g, of cell debris at 2,800 g for 10 min, and spun in an ultracentrifuge at 10,000 g for 30 min (4° C., k-factor 2547.2) for the collection of L-EVs. The supernatant was then spun at 100,000 g for 60 min (4° C., k-factor 254.7) for the collection of S-EVs. Both 10,000 g and 100,000 g pellets were then subjected to Optiprep™ (Sigma) density gradient purification. Fresh pelleted EVs were resuspended in 0.2 μm-filtered PBS and deposited at the bottom of an ultracentrifuge tube. […]
Immunoblotting analysis was performed as described (Zhou et al. Low-background Acyl-biotinyl exchange largely eliminates the co-isolation of non-S-Acylated proteins and enables deep S-Acylproteomic analysis. Anal Chem. 2019; 91(15):9858-9866). […] Densitometric quantification of films was performed with the ImageJ software (v1.52a). […]

[2] = 10 μM 2-BP for 24 h, PC3 L- and S-EVs

CCCCCCCCCCCCCCC(Br)C(=O)O (centres unmarked) [2-BP, 2-bromohexadecanoic acid]
non-toxic concentration (PC3 cells): 10 µM
ABCC4 in EVs [1, 2]: decrease; also recorded: reduced
STEAP1 in EVs [1, 2]: decrease
STEAP2 in EVs [1, 2]: decrease; also recorded: reduced
Cav-1 levels in EVs ([1]; 10 μM 2-BP, PC3 EVs): did not change; also recorded: did not alter the localization
